Test results reported in article PMC7932537, “Quantitative profiling of protease specificity” (PLoS Computational Biology, 2021).

What was measured:
MMP-9 = MMP-9 (Homo sapiens, UniProt P14780); test: K(obs) of individual phage substrates (set of 1369); format: biochemical; conditions: MMP9, individual phage substrates, set of 1369 peptides
MMP-2 = target: T1, MMP-2 (Homo sapiens, UniProt P08253); test: as above; format: biochemical; conditions: MMP2
T1 sequence (P08253 110-660): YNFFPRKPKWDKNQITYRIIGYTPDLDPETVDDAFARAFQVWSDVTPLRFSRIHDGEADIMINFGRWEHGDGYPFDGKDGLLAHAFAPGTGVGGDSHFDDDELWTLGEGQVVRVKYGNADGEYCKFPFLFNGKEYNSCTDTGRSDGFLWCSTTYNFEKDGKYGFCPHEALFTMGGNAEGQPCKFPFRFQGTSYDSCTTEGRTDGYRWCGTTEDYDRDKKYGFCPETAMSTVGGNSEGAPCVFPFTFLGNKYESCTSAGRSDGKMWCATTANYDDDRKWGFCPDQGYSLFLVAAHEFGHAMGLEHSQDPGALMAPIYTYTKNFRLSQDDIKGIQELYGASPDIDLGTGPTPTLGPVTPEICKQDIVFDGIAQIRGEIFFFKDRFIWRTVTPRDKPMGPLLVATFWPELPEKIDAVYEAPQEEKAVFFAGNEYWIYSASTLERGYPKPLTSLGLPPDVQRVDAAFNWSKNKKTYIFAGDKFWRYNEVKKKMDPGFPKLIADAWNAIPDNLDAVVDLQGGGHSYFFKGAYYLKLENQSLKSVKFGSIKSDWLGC

[1] = '-' marks the cleavage position (P1-P1')
[2] = individual phage substrates, set of 1369 peptides, cleavage position marked by '-' in the sequence
[3] = dash in sequence marks cleavage position
[4] = individual phage substrate from the set of 1369 peptides, cleavage position marked by the dash in the sequence

Chain of MMP-9 (P14780 94-707): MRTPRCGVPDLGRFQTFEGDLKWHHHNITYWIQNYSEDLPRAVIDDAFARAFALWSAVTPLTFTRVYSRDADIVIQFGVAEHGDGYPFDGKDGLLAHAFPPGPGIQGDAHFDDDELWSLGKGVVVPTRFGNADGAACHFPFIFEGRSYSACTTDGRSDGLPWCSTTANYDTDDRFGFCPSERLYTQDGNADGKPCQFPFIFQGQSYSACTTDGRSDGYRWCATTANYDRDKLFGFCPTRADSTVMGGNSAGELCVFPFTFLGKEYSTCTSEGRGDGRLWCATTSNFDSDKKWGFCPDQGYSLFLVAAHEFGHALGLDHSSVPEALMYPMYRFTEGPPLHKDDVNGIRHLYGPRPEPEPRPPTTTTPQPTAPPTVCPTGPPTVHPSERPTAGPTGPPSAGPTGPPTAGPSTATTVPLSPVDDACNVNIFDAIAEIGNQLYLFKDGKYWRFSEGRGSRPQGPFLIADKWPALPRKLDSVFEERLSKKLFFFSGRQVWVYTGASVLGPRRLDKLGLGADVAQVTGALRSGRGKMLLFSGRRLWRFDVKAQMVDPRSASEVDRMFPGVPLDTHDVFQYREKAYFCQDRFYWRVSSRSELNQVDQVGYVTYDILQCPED

Substance	Kobs (MMP-9; [1])	Kobs (MMP-2; [2])	Kobs (MMP-9; [3])	Kobs (MMP-2; [4])
SGGSG-LRMWI	1239.69 M⁻¹ s⁻¹	484.315 M⁻¹ s⁻¹		
GVINQ-LRTAS			355.093 M⁻¹ s⁻¹	517.582 M⁻¹ s⁻¹
RRPAS-MTASG	7015.91 M⁻¹ s⁻¹	5090.5 M⁻¹ s⁻¹		
FMMGN-MTASG	84.609 M⁻¹ s⁻¹	12792.1 M⁻¹ s⁻¹		
GQHMR-LITAS	836.403 M⁻¹ s⁻¹	0 M⁻¹ s⁻¹		
HYPSS-LTASG	12792.1 M⁻¹ s⁻¹	12792.1 M⁻¹ s⁻¹		
NFGRP-LTASG	726.013 M⁻¹ s⁻¹	912.511 M⁻¹ s⁻¹		
GRAWG-LITAS			1981.53 M⁻¹ s⁻¹	3165.09 M⁻¹ s⁻¹
GGSGR-LLQFL	0 M⁻¹ s⁻¹	8321.48 M⁻¹ s⁻¹		
EQLAN-MTASG	386.839 M⁻¹ s⁻¹	7386.83 M⁻¹ s⁻¹		
WLAQA-LTASG	7815.03 M⁻¹ s⁻¹	12792.1 M⁻¹ s⁻¹		
QAAFH-LTASG	3253.29 M⁻¹ s⁻¹	3964.21 M⁻¹ s⁻¹		
GSGWD-LKRST			0 M⁻¹ s⁻¹	142.481 M⁻¹ s⁻¹
GHLAS-QRTAS	0 M⁻¹ s⁻¹	1870.4 M⁻¹ s⁻¹		
SGPMA-LKSTA			8321.48 M⁻¹ s⁻¹	8941.32 M⁻¹ s⁻¹
RRVLA-LTASG			12792.1 M⁻¹ s⁻¹	12792.1 M⁻¹ s⁻¹
GRPLQ-YRTAS	10866.7 M⁻¹ s⁻¹	12792.1 M⁻¹ s⁻¹		
TTALW-LTASG			4922.1 M⁻¹ s⁻¹	6131.32 M⁻¹ s⁻¹
SGYLP-LLYTA	12792.1 M⁻¹ s⁻¹	1196.62 M⁻¹ s⁻¹		
GVLFH-LSTAS	0 M⁻¹ s⁻¹	0 M⁻¹ s⁻¹		
SAVRA-LTASG	7815.03 M⁻¹ s⁻¹	9740.44 M⁻¹ s⁻¹		

Substance	Kobs (MMP-9; [1])	Kobs (MMP-2; [2])	Kobs (MMP-9; [3])	Kobs (MMP-2; [4])
GGASG-LMTAS	84.609 M⁻¹ s⁻¹	451.441 M⁻¹ s⁻¹		
DAPYF-LTASG			8321.48 M⁻¹ s⁻¹	5667.28 M⁻¹ s⁻¹
GKTWA-LTASG	912.511 M⁻¹ s⁻¹	323.705 M⁻¹ s⁻¹		
SGARN-LMATA	12792.1 M⁻¹ s⁻¹	10866.7 M⁻¹ s⁻¹		
SGVGA-LNKTA			56.119 M⁻¹ s⁻¹	836.403 M⁻¹ s⁻¹
SGANS-LVATA	27.918 M⁻¹ s⁻¹	1327.88 M⁻¹ s⁻¹		
SGAYH-LQQTA	762.325 M⁻¹ s⁻¹	0 M⁻¹ s⁻¹		
QVPVF-LTASG	8321.48 M⁻¹ s⁻¹	12792.1 M⁻¹ s⁻¹		
YATWS-MTASG	27.918 M⁻¹ s⁻¹	0 M⁻¹ s⁻¹		
RVPKL-LTASG			4922.1 M⁻¹ s⁻¹	1870.4 M⁻¹ s⁻¹
DYARA-MTASG			3438.54 M⁻¹ s⁻¹	4082.43 M⁻¹ s⁻¹
SGYRF-MTLTA	0 M⁻¹ s⁻¹	0 M⁻¹ s⁻¹		
HGPMS-LTASG	10866.7 M⁻¹ s⁻¹	10866.7 M⁻¹ s⁻¹		
GGSGR-LMYER			0 M⁻¹ s⁻¹	0 M⁻¹ s⁻¹
SGTWP-LSGTA	8941.32 M⁻¹ s⁻¹	12792.1 M⁻¹ s⁻¹		
RGMQN-LTASG	690.17 M⁻¹ s⁻¹	1610.61 M⁻¹ s⁻¹		
FTVHM-LTASG			1513.13 M⁻¹ s⁻¹	1418.96 M⁻¹ s⁻¹
SGPMH-LRSTA	10866.7 M⁻¹ s⁻¹	8321.48 M⁻¹ s⁻¹		
SGVYR-LELTA			0 M⁻¹ s⁻¹	113.394 M⁻¹ s⁻¹
VNVRN-LTASG			5269.78 M⁻¹ s⁻¹	12792.1 M⁻¹ s⁻¹
GGSGR-LNMRL	0 M⁻¹ s⁻¹	0 M⁻¹ s⁻¹		

Substance	Kobs (MMP-9; [1])	Kobs (MMP-2; [2])	Kobs (MMP-9; [3])	Kobs (MMP-2; [4])
SGLGE-LRGTA	3850.82 M⁻¹ s⁻¹	12792.1 M⁻¹ s⁻¹		
PSPRY-LTASG			10866.7 M⁻¹ s⁻¹	12792.1 M⁻¹ s⁻¹
NSHMA-LTASG			619.843 M⁻¹ s⁻¹	517.582 M⁻¹ s⁻¹
SGPAG-MHSTA	7015.91 M⁻¹ s⁻¹	12792.1 M⁻¹ s⁻¹		
GNAMR-MVTAS	56.119 M⁻¹ s⁻¹	0 M⁻¹ s⁻¹		
RHLAK-LTASG	0 M⁻¹ s⁻¹	9740.44 M⁻¹ s⁻¹		
ARVGV-LTASG			0 M⁻¹ s⁻¹	84.609 M⁻¹ s⁻¹
GQPRN-LSTAS			12792.1 M⁻¹ s⁻¹	12792.1 M⁻¹ s⁻¹
YTMLH-LTASG			0 M⁻¹ s⁻¹	726.013 M⁻¹ s⁻¹
GSPVQ-LTTAS	1327.88 M⁻¹ s⁻¹	1816.46 M⁻¹ s⁻¹		
SYMFS-LTASG	113.394 M⁻¹ s⁻¹	56.119 M⁻¹ s⁻¹		
SGVFS-LKLTA			551.253 M⁻¹ s⁻¹	654.784 M⁻¹ s⁻¹
KSPRM-LTASG			12792.1 M⁻¹ s⁻¹	12792.1 M⁻¹ s⁻¹
GTLAQ-ISTAS			517.582 M⁻¹ s⁻¹	0 M⁻¹ s⁻¹
GVPLN-VKTAS	12792.1 M⁻¹ s⁻¹	5090.5 M⁻¹ s⁻¹		
SGLAK-LTVTA	0 M⁻¹ s⁻¹	0 M⁻¹ s⁻¹		
GGSGF-LVAKA			0 M⁻¹ s⁻¹	1327.88 M⁻¹ s⁻¹
GMVLN-LTASG	7015.91 M⁻¹ s⁻¹	12792.1 M⁻¹ s⁻¹		
GTIAH-LHTAS	0 M⁻¹ s⁻¹	10866.7 M⁻¹ s⁻¹		
SGPLS-LRSTA	12792.1 M⁻¹ s⁻¹	12792.1 M⁻¹ s⁻¹		
SGVNL-LLMTA	0 M⁻¹ s⁻¹	27.918 M⁻¹ s⁻¹		

Substance	Kobs (MMP-9; [1])	Kobs (MMP-2; [2])	Kobs (MMP-9; [3])	Kobs (MMP-2; [4])
SRVLP-LTASG			1711.63 M⁻¹ s⁻¹	4613.14 M⁻¹ s⁻¹
GSGLA-LKMGT			0 M⁻¹ s⁻¹	84.609 M⁻¹ s⁻¹
SGVAS-LMGTA			8941.32 M⁻¹ s⁻¹	12792.1 M⁻¹ s⁻¹
GHPWL-QRTAS	56.119 M⁻¹ s⁻¹	0 M⁻¹ s⁻¹		
NFPMS-LTASG	12792.1 M⁻¹ s⁻¹	12792.1 M⁻¹ s⁻¹		
TPVGW-MTASG	5269.78 M⁻¹ s⁻¹	12792.1 M⁻¹ s⁻¹		
GSGWR-LTVGT			27.918 M⁻¹ s⁻¹	0 M⁻¹ s⁻¹
GRASR-LVTAS			0 M⁻¹ s⁻¹	551.253 M⁻¹ s⁻¹
GKPQN-LRTAS			12792.1 M⁻¹ s⁻¹	12792.1 M⁻¹ s⁻¹
GGSGA-LIAND	0 M⁻¹ s⁻¹	874.197 M⁻¹ s⁻¹		
GVPFM-ILTAS			4922.1 M⁻¹ s⁻¹	484.315 M⁻¹ s⁻¹
GGSGN-LVRVR			0 M⁻¹ s⁻¹	142.481 M⁻¹ s⁻¹
GGSGA-YTMVA			551.253 M⁻¹ s⁻¹	726.013 M⁻¹ s⁻¹
SGPWG-LLETA	12792.1 M⁻¹ s⁻¹	2409.72 M⁻¹ s⁻¹		
GLAVG-LRTAS	4922.1 M⁻¹ s⁻¹	12792.1 M⁻¹ s⁻¹		
GMYLN-LKTAS	0 M⁻¹ s⁻¹	0 M⁻¹ s⁻¹		
SGLGM-LATTA	84.609 M⁻¹ s⁻¹	418.952 M⁻¹ s⁻¹		
GGHQW-LRTAS			0 M⁻¹ s⁻¹	2687.73 M⁻¹ s⁻¹
GTIDL-LTTAS	201.585 M⁻¹ s⁻¹	0 M⁻¹ s⁻¹		
ELPNF-LTASG	231.616 M⁻¹ s⁻¹	951.362 M⁻¹ s⁻¹		
